According to US10231954B2, “Neurodegenerative therapies” (LYTIX BIOPHARMA AS, priority 2014, dated 2019):
Read-outs that look alike come from different tables or passages of the source.

Key:
Format in all cases: biochemical
[1] = target: T1, BRSK2 (Homo sapiens, UniProt Q8IWQ3); assay: Kinase profiling BRSK2; conditions: for remaining activity at 100 µM: read-out: residual kinase activity, BRSK2
T1 sequence (Q8IWQ3 1-736): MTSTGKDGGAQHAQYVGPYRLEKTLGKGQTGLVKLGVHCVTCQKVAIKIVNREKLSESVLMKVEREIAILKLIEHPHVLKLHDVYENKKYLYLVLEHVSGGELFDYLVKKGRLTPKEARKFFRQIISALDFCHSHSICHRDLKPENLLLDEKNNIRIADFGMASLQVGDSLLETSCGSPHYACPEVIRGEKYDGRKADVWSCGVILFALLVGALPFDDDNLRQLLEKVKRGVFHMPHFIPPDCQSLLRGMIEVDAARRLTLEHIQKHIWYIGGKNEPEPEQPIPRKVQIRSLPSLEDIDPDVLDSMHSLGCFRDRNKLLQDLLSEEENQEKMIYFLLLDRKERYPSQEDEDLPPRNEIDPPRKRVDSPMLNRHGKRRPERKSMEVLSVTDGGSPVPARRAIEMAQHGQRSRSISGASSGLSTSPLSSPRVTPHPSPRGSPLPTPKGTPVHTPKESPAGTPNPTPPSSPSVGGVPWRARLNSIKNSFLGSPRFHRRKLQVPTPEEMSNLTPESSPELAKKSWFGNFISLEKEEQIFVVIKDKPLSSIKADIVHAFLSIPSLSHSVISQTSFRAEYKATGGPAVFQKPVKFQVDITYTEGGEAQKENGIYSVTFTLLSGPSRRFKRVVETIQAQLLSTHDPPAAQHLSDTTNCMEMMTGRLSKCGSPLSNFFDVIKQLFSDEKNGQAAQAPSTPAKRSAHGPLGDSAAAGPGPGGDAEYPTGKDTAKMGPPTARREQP
Description: (§1) Any value less that 25 is considered to be highly significant inhibition.

[2] = target: T2, NEK2a (Homo sapiens, UniProt P51955); assay: Kinase profiling NEK2a; conditions: for remaining activity at 100 µM: read-out: residual kinase activity, NEK2a
T2 sequence (P51955 1-445): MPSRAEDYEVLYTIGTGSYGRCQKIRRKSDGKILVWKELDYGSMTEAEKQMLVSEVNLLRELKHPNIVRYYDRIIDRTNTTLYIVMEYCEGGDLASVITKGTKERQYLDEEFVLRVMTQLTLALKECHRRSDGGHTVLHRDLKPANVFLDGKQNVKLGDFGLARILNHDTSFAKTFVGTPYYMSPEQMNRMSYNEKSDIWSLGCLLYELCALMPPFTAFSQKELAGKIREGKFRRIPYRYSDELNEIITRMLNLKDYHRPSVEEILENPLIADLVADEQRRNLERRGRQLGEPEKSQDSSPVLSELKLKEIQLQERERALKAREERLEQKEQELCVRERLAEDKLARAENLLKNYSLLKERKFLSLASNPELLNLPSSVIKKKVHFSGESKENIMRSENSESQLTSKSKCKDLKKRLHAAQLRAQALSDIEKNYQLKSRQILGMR
Description: as §1

[3] = target: T3, TAO1 (Homo sapiens, UniProt Q7L7X3); assay: Kinase profiling TAO1; conditions: for remaining activity at 100 µM: read-out: residual kinase activity, TAO1
T3 sequence (Q7L7X3 1-1001): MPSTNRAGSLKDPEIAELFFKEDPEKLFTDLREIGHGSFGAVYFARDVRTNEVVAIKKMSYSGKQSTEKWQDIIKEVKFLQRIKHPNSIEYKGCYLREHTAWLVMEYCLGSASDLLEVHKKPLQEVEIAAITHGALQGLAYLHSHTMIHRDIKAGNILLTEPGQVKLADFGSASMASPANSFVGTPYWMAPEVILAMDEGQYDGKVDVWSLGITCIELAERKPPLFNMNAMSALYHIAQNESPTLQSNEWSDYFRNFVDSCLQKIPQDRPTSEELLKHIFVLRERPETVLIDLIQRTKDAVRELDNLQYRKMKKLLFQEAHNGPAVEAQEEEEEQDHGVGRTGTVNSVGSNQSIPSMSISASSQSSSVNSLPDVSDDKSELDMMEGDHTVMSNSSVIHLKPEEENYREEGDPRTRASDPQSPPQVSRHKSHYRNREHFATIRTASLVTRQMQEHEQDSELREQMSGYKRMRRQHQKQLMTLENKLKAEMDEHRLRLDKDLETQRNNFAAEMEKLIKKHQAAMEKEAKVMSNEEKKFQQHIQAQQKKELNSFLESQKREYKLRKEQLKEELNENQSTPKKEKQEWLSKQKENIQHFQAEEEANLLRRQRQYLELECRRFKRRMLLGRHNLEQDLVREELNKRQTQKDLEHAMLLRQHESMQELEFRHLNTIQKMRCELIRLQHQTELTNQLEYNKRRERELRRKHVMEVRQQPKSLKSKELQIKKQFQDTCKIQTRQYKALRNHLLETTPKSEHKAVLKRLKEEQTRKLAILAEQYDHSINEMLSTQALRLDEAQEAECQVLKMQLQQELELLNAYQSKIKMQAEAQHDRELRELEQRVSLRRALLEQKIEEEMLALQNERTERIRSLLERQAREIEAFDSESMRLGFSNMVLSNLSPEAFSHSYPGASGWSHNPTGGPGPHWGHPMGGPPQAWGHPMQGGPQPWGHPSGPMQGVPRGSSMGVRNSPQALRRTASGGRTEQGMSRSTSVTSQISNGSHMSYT
Description: as §1

[4] = target: TIE2 (Homo sapiens, UniProt Q02763); assay: Kinase profiling TIE2; conditions: for remaining activity at 100 µM: read-out: residual kinase activity, TIE2
TIE2, sequence (Q02763 23-1124, species assumed): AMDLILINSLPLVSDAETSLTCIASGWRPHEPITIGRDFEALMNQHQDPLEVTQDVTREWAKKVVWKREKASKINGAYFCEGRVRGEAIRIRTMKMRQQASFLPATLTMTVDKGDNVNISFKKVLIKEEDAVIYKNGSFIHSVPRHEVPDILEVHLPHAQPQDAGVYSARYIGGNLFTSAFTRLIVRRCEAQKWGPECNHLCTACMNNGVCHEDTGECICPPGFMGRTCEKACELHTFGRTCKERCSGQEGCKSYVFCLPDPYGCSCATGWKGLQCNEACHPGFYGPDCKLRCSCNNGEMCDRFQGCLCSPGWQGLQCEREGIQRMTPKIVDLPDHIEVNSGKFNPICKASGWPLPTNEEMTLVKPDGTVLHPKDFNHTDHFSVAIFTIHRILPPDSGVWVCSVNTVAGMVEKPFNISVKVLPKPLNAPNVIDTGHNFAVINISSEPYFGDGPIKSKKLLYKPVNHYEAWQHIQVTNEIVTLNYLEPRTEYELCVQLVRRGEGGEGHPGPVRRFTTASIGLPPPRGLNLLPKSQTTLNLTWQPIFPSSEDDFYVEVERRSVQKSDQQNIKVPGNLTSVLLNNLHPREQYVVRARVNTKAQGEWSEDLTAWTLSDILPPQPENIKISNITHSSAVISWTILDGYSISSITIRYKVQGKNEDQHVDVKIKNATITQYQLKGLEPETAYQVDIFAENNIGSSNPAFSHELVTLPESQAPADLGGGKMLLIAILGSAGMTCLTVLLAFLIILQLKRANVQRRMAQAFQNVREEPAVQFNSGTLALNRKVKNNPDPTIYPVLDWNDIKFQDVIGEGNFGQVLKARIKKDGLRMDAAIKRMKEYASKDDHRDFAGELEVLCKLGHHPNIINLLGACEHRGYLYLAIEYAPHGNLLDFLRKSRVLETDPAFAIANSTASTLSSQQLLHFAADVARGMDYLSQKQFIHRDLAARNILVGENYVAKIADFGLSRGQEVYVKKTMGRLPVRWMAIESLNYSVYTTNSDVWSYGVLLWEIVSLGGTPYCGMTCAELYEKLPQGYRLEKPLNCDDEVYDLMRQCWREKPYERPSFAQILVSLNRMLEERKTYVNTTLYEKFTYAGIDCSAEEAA
Description: as §1

[5] = target: DYRK1A (Homo sapiens, UniProt Q13627); assay: Determination of IC50 values against DYRK1a; conditions: average of duplicate; 10 concentrations 100 μM to 0.003 μM; read-out: IC 50 against DYRK1a
Experimental: The kinase assay was carried out using Multidrop 384's at room temperature in a total assay volume of 25.5 μl. To plates containing 0.5 μl of compounds, DMSO controls or acid blanks, 15 μl of an enzyme mix containing the DYRK1a enzyme and peptide/protein substrate in buffer was added. Compounds were pre-incubated in the presence of the enzyme and peptide/protein substrate for 5 minutes before initiation of the reaction by addition of 10 μl of ATP (final concentration selected for each kinase at 5, 20 or 50 μM). Assays were carried out for 30 minutes at room temperature before termination by the addition of 5 μl orthophosphoric acid. The assay plates were then harvested onto P81 Unifilter Plates by a Packard Harvester (wash buffer is 50 mM orthophosphoric acid) and dried in air. The dry Unifilter plates were then sealed by the addition of MicroScint O and counted in Packard Topcount NXT scintillation counters.

[6] = 100 micromolar inhibitor concentration, 100 is no change
[7] = 100 micromolar inhibitor, 100 = no change

| SMILES | IC50 [5] [µM] | remaining activity at 100 µM [1, 6] [%] | remaining activity at 100 µM [2, 6] [%] | remaining activity at 100 µM [3, 6] [%] | remaining activity at 100 µM [4, 6] [%] | residual kinase activity, BRSK2 [1, 6] | residual kinase activity, NEK2a [2, 6] | residual kinase activity, TAO1 [3, 6] | residual kinase activity, TIE2 [4, 6] | further results |
| --- | --- | --- | --- | --- | --- | --- | --- | --- | --- | --- |
| CC(=O)Nc1nc2cc(O)ccc2s1 [Compound 01-66, N-(5-hydroxybenzo[d]thiazol-2-yl)acetamide] | 0.8 | – | – | – | – | – | – | – | – | remaining activity at 100 µM [1]: 56%; remaining activity at 100 µM [2]: 85%; remaining activity at 100 µM [3]: 30%; remaining activity at 100 µM [4]: 75% |
| CC(=O)Nc1nc2ccc(O)cc2s1 [Compound 01-71] | 28.1 | 22 | 75 | 29 | 65 | – | – | – | – | – |
| CC(=O)Nc1nc2ccc(F)cc2s1 [Compound 03-94] | 23.6 | – | – | – | – | – | – | – | – | – |
| O=C(Nc1nc2cc(O)ccc2s1)c1cccnc1 [Compound 03-33] | – | – | – | – | – | 82 | 99 | 87 | 100 | – |
| O=C(Nc1nc2cc(O)ccc2s1)c1ccccn1 [Compound 03-13] | – | – | – | – | – | 80 | 89 | 80 | 106 | – |
| CC(=O)Nc1nc2cc(C)ccc2s1 [Compound 03-76] | – | – | – | – | – | 79 | 95 | 76 | 95 | – |
| O=C(Nc1nc2ccc(O)cc2s1)c1ccncc1 [Compound 08-42] | – | – | – | – | – | 74 | 79 | 81 | 80 | – |
| O=C(Nc1nc2ccc(O)cc2s1)c1ccccn1 [Compound 03-12] | – | – | – | – | – | 79 | 92 | 74 | 76 | – |
| CC(=O)Nc1cccc(NC(=O)c2nc3ccc(O)cc3s2)c1 [Compound 03-07, N-(3-acetamidophenyl)-6-hydroxybenzo[d]thiazole-2-carboxamide] | – | – | – | – | – | – | – | – | – | remaining activity at 100 µM [1, 7]: 66%; remaining activity at 100 µM [2, 7]: 38%; remaining activity at 100 µM [3, 7]: 84%; remaining activity at 100 µM [4, 7]: 78% |
| O=C(Nc1nc2ccc(O)cc2s1)c1ccccc1 [Compound 03-60] | – | – | – | – | – | 34 | 64 | 62 | 41 | – |
| CC(=O)Nc1nc2ccccc2s1 [Compound 03-32] | – | – | – | – | – | 91 | 90 | 73 | 112 | – |
| CC(=O)Nc1nc2ccc(C#N)cc2s1 [Compound 01-94] | 1.3 | 67 | 60 | 46 | 85 | – | – | – | – | – |
| O=C(Nc1nc2cc(O)ccc2s1)c1ccncc1 [Compound 03-11] | – | – | – | – | – | 81 | 93 | 77 | 84 | – |
| COc1ccc2sc(NC(C)=O)nc2c1 [Compound 03-21] | 0.4 | 95 | 93 | 72 | 91 | – | – | – | – | – |
| CC(=O)Nc1nc2cc(C(F)(F)F)ccc2s1 [Compound 03-73] | 26.5 | 98 | 94 | 88 | 92 | – | – | – | – | – |
| CC(=O)Nc1nc2cc(F)ccc2s1 [Compound 03-77] | 3.9 | 77 | 90 | 69 | 112 | – | – | – | – | – |
| CC(=O)Nc1nc2ccc(C(F)(F)F)cc2s1 [Compound 01-90] | 1.1 | 64 | 78 | 71 | 60 | – | – | – | – | – |
| O=C(Nc1nc2ccc(O)cc2s1)c1cccnc1 [Compound 08-44] | – | – | – | – | – | 52 | 74 | 68 | 81 | – |
| CC(=O)Nc1nc2ccc([N+](=O)[O-])cc2s1 [Compound 13-10] | 0.7 | – | – | – | – | – | – | – | – | – |
